Target: T1, TRPV3-L508A (Homo sapiens, UniProt Q8NET8, L508A)
T1 sequence (Q8NET8 1-790 L508A): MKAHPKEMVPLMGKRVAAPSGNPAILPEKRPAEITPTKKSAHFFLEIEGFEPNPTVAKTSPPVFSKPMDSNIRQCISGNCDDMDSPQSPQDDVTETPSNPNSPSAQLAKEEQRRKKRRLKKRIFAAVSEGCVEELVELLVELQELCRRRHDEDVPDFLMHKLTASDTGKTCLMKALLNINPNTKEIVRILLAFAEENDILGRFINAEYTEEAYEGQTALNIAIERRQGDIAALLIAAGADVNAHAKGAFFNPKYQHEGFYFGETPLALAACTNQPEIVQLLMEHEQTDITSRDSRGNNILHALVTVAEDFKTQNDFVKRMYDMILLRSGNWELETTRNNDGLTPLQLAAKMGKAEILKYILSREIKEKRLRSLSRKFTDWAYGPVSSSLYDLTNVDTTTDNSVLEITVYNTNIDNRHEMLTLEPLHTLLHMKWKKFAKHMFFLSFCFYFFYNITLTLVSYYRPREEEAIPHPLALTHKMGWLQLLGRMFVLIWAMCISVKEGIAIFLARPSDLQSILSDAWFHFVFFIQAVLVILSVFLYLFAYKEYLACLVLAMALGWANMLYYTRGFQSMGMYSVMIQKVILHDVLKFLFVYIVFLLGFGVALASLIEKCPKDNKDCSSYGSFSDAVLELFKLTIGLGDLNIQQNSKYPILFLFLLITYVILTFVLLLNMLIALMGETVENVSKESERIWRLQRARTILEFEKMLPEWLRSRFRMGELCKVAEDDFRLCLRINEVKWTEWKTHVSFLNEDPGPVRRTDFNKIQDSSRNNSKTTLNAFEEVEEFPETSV
Test: Whole-cell and single-channel recordings of the TRPV3-L508A mutant
Format: cell-based
Conditions: carvacrol 0.3-3.0 mM or 50 μM 2-APB

- activation of TRPV3 L508A mutant channel: loss of the mutant channel activation
SMILES: Cc1ccc(C(C)C)cc1O [carvacrol, 5-Isopropyl-2-methylphenol]
